Where a name gives a salt, the structure may show the parent alone.
Assays:
human MAO-A = target: T1, human MAO-A (Homo sapiens, UniProt P21397); assay: MAO-A enzymatic activity, spectrophotometric assay (Amplex Red, tyramine substrate) on membranes of transfected EBNA cells; assay type: biochemical; details: 30 min preincubation at 37° C., pH 7.4, tyramine substrate
T1 construct: expressed in transfected cells; host or cells: EBNA cells (transient transfection; cell membranes used)
T1 sequence (P21397 1-527): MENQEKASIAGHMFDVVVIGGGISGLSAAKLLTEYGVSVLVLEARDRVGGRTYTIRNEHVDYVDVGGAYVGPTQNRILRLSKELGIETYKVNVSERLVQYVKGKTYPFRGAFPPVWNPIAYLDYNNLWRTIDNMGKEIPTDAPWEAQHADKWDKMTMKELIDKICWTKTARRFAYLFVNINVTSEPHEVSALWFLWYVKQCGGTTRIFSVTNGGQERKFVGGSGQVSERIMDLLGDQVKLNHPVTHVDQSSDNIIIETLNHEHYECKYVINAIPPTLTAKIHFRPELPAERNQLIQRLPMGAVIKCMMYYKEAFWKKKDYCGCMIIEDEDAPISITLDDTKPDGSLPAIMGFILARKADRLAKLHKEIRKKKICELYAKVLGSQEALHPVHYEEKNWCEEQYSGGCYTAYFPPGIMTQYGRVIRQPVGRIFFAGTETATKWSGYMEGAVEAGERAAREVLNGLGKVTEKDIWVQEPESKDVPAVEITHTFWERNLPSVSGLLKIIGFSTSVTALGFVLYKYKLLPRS
Description: (§1) The cDNA's encoding human MAO-A and MAO-B were transiently transfected into EBNA cells using the procedure described by E.-J. Schlaeger and K. Christensen (Transient Gene Expression in Mammalian Cells Grown in Serum-free Suspension Culture; Cytotechnology, 15: 1-13, 1998). After transfection, cells were homogenized by means of a Polytron homogenizer in 20 mM Tris HCl buffer, pH 8.0, containing 0.5 mM EGTA and 0.5 mM phenylmethanesulfonyl fluoride. Cell membranes were obtained by centrifugation at 45,000×g and, after two rinsing step with 20 mM Tris HCl buffer, pH 8.0, containing 0.5 mM EGTA, membranes were eventually re-suspended in the above buffer and aliquots stored at −80° C. until use.
(§2) MAO-A and MAO-B enzymatic activity was assayed in 96-well-plates using a spectrophotometric assay adapted from the method described by M. Zhou and N. Panchuk-Voloshina (A One-Step Fluorometric Method for the Continuous Measurement of Monoamine Oxidase Activity, Analytical Biochemistry, 253: 169-174, 1997). Briefly, membrane aliquots were incubated in 0.1 M potassium phosphate buffer, pH 7.4, for 30 min at 37° C. with or without various concentrations of the compounds. After this period, the enzymatic reaction was started by the addition of the MAO substrate tyramine together with 1 U/ml horse-radish peroxidase (Roche Biochemicals) and 80 μM N-acetyl-3,7,-dihydroxyphenoxazine (Amplex Red, Molecular Probes). The samples were further incubated for 30 min at 37° C. in a final volume of 200 μl and absorbance was then determined at a wavelength of 570 nm using a SpectraMax plate reader (Molecular Devices). Background (non-specific) absorbance was determined in the presence of 10 μM clorgyline for MAO-A or 10 μM L-deprenyl for MAO-B.
(§3) IC50 values were determined from inhibition curves obtained using nine inhibitor concentrations in duplicate, by fitting data to a four parameter logistic equation using a computer program.

human MAO-B = target: T2, human MAO-B (Homo sapiens, UniProt P27338); assay: MAO-B enzymatic activity, spectrophotometric assay (Amplex Red, tyramine substrate) on membranes of transfected EBNA cells; assay type: biochemical; details: 30 min preincubation at 37° C., pH 7.4, tyramine substrate
T2 construct: expressed in transfected cells; host or cells: EBNA cells (transient transfection; cell membranes used)
T2 sequence (P27338 1-520): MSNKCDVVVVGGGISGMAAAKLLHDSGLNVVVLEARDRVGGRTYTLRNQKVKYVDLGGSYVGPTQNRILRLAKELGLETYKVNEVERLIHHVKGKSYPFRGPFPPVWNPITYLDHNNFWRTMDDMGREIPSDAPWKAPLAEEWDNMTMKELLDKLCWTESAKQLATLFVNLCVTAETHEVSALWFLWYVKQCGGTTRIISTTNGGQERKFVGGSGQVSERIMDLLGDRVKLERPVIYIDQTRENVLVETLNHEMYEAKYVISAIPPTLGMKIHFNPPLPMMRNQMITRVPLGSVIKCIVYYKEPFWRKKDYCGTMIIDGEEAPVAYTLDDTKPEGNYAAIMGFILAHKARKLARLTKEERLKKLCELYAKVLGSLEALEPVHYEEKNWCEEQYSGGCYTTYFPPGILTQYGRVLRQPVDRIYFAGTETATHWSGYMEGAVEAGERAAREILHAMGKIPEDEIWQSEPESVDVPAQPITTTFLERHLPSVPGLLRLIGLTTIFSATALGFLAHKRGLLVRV
Description: as §1, §2, §3

Row | IC50 (human MAO-A) | IC50 (human MAO-B) | SMILES
1 | > 10 µM | 115 nM | CC[S+]([O-])CCN1C(=O)c2ccc(OCc3ccc(F)cc3)cc2C1=O (stereo not drawn) [Example 38, 2-(2-Ethanesulfinyl-ethyl)-5-(4-fluoro-benzyloxy)-isoindole-1,3-dione]
2 | > 10 µM | 32 nM | NCCN1C(=O)c2ccc(OCc3ccc(F)cc3)cc2C1=O [Example 9, 2-(2-Amino-ethyl)-5-(4-fluoro-benzyloxy)-isoindole-1,3-dione 1:1 hydrochloride]
3 | > 10 µM | 81 nM | O=C1c2ccc(OCc3ccc(F)cc3)cc2C(=O)N1Cc1cccs1 [Example 34, 5-(4-Fluoro-benzyloxy)-2-thiophen-2-ylmethyl-isoindole-1,3-dione]
4 | > 10 µM | 34 nM | COC[C@H](C)N1C(=O)c2ccc(OCc3ccc(Br)cc3)cc2C1=O [Example 28, (S)-5-(4-Bromo-benzyloxy)-2-(2-methoxy-1-methyl-ethyl)-isoindole-1,3-dione]
5 | 3.5 µM | 32 nM | COC[C@H](C)N1C(=O)c2ccc(OCc3ccc(F)c(F)c3)cc2C1=O [Example 31, (S)-5-(3,4-Difluoro-benzyloxy)-2-(2-methoxy-1-methyl-ethyl)-isoindole-1,3-dione]
6 | > 10 µM | 34 nM | N#CCN1C(=O)c2ccc(OCc3ccc(F)cc3)cc2C1=O [Example 7]

The next lines start with the compound.

Row | SMILES | IC50 (human MAO-A) | IC50 (human MAO-B)
7 | C[C@@H](C(N)=O)N1C(=O)c2ccc(OCc3ccc(F)cc3)cc2C1=O [Example 2, (S)-2-[5-(4-Fluoro-benzyloxy)-1,3-dioxo-1,3-dihydro-isoindol-2-yl]-propionamide] | 0.776 µM | 8 nM
8 | CCSCCN1C(=O)c2ccc(OCc3ccc(F)cc3)cc2C1=O [Example 19, 2-(2-Ethylsulfanyl-ethyl)-5-(4-fluoro-benzyloxy)-isoindole-1,3-dione] | > 10 µM | 11 nM
9 | NCCN1C(=O)c2ccc(OCc3cccc(F)c3)cc2C1=O [Example 50, 2-(2-Amino-ethyl)-5-(3-fluoro-benzyloxy)-isoindole-1,3-dione 1:1 hydrochloride] | > 10 µM | 39 nM
10 | COC[C@H](C)N1C(=O)c2ccc(OCc3ccc(OC(F)(F)F)cc3)cc2C1=O [Example 32, (S)-2-(2-Methoxy-1-methyl-ethyl)-5-(4-trifluoromethoxy-benzyloxy)-isoindole-1,3-dione] | > 10 µM | 47 nM
11 | NC(=O)[C@H](CO)N1C(=O)c2ccc(OCc3cccc(F)c3)cc2C1=O [Example 52, (S)-2-[5-(3-Fluoro-benzyloxy)-1,3-dioxo-1,3-dihydro-isoindol-2-yl]-3-hydroxy-propionamide] | > 10 µM | 20 nM
12 | NC(=O)[C@H](CO)N1C(=O)c2ccc(OCc3ccc(F)cc3)cc2C1=O [Example 14, (S)-2-[5-(4-Fluoro-benzyloxy)-1,3-dioxo-1,3-dihydro-isoindol-2-yl]-3-hydroxy-propionamide] | > 10 µM | 17 nM
13 | COC[C@H](C)N1C(=O)c2ccc(OCc3cccc(OC)c3)cc2C1=O [Example 29, (S)-5-(3-Methoxy-benzyloxy)-2-(2-methoxy-1-methyl-ethyl)-isoindole-1,3-dione] | > 10 µM | 69 nM
14 | C[C@@H](C(N)=O)N1C(=O)c2ccc(OCc3cccc(F)c3)cc2C1=O [Example 44, (S)-2-[5-(3-Fluoro-benzyloxy)-1,3-dioxo-1,3-dihydro-isoindol-2-yl]-propionamide] | 5.76 µM | 7 nM
15 | COC[C@H](C)N1C(=O)c2ccc(OCc3ccc(C#N)cc3)cc2C1=O [Example 30, (S)-4-[2-(2-Methoxy-1-methyl-ethyl)-1,3-dioxo-2,3-dihydro-1H-isoindol-5-yloxymethyl]-bezonitrile] | 6.2 µM | 129 nM
16 | NC(=O)CC(O)CN1C(=O)c2ccc(OCc3ccc(F)cc3)cc2C1=O (stereo not drawn) [Example 22, 4-[5-(4-Fluoro-benzyloxy)-1,3-dioxo-1,3-dihydro-isoindol-2-yl]-3-hydroxy-butyramide] | > 10 µM | 97 nM
17 | COC(CN1C(=O)c2ccc(OCc3ccc(F)cc3)cc2C1=O)C(F)(F)F (stereo not drawn) [Example 43] | > 10 µM | 45 nM
18 | O=C1c2ccc(OCc3ccc(F)cc3)cc2C(=O)N1CCO [Example 12, 5-(4-Fluoro-benzyloxy)-2-(2-hydroxy-ethyl)-isoindole-1,3-dione] | 0.369 µM | 4 nM

— patent publication US6903095B2, “Phthalimido derivatives and a process for their preparation” (Hoffmann-La Roche Inc., priority 2002, dated 2005)
